The target of experiment [1] is T1, wild type PKR (Homo sapiens, UniProt P30613). In words: PKR (wild type) enzyme AC50 assay, LDH/NADH-coupled, absorbance at 340 nm. The experiment is classed as biochemical. The note with it: Table 2; enzyme assay; read-out: PKR WT AC50. The method, then:
(§1) Example 11. PKR Mutant Assay
(§2) PKR or PKR mutant enzyme solution was diluted into a reaction mix, which contains 1× buffer (100 mM KCl, 50 mM Tris pH 7.5, 5 mM MgCl2) as well as PEP (conc depends on enzyme), 180 μM NADH, 0.5 units LDH, 1 mM DTT, 0.03% BSA; final assay concentrations after 1.11 fold dilution are indicated.
(§3) 2 μL of test compound was added into wells first, and then 180 μL reaction mix was added.
(§4) Reactions mixture with test compound was assembled except for ADP, and plates were stored for 60 minutes at room temperature.
(§5) 20 uL ADP was added to start reaction at room temperature and reaction progress was measured as changes in absorbance at 340 nm wavelength at room temperature.
(§6) Test Compound Preparation:
(§7) Test compound stock was made at 100× concentration in 100% DMSO (10 mM)
(§8) 1 to 3 dilutions were made for 11 points (i.e. 50 μl of first concentration added to 100 μl 100% DMSO to yield 3.33 mM, 50 μl of this added to 100 μl DMSO to yield 1.11 mM, and so forth) • 1 to 100 dilution into assay (2 μl in 200 μl) yielded starting concentration of 100 μM, decreasing 3 fold for 11 points.
(§9) Assay Buffer: 100 mM KCl, 50 mM Tris 7.5, 5 mM MgCl2, 1 mM DTT, 0.03% BSA
(§10) Reaction Mixture: PKR mutant enzyme: 40-400 ng/well; ADP: 0.2-1.65 mM; PEP: 0.1-0.5 mM; NADH: 180 μM; LDH: 0.5 units (Sigma #59023); DTT: 1 mM; BSA: 0.03%.

Experiment [2] addresses T1, wild type PKR. In words: Cell based ATP assay in purified red blood cells (Cell-Titer-Glo). Set-up: endogenous in cells; host or cells: purified red blood cells from healthy volunteers. The settings on record: Table 2; RBCs, overnight at 37° C., ATP levels. The method, then: Example 16. Red Blood Cell (RBC) Purification
Fresh blood drawn from healthy volunteers into K2EDTA tubes was collected. Whole blood was pelleted by spinning at 500 g for 10 minutes. Cut transfusion bag port off of Purecell leukocyte reduction neofilter (Fisher NC0267633) one (1) inch above filter. Attach a 10 ml syringe barrel to the remaining cut tubing attached to neofilter. The plasma layer was removed from the pellet of the whole blood and the pellet was resuspended in 2× volume of phosphate buffered saline (PBS). Transfer 9 ml re-suspended blood cell pellet to prepared 10 ml syringe that is attached to the neofilter. Allow whole blood to gravity flow through filter until all fluid runs through upper tubing into filter disc. Add plunger to the syringe, remove syringe from clamp and invert the filter, then plunge air through the syringe filter system. Using a new 5 ml syringe, remove filtered RBCs from the bag by the syringe port and transfer purified RBCs to a 5 ml snap cap tube that has been incubated on ice. Spin 5 ml snap cap tube at 500 g for 10 minutes at 15 C, aspirate supernatant and resuspend in AGAM (1×PBS, 1% glucose, 170 mg/L adenine, 5.25 g/L mannitol) at a density of 4×10^9 cells/mL.
Example 17. Cell Based ATP Assay
For cell based ATP assays, the compound as described herein was prepared in 100% DMSO as a 10 mM stock. Serial dilutions (1:4) were performed in 96-well V-bottom storage plate and then added 1:100 to 96-well V-bottom plates containing AGAM. RBCs were diluted in AGAM media to a density of 1×10^7 cells/mL before added 90 μL/well to black clear bottom assay plates (final compound concentration at 0.1% DMSO concentration). Assay plates were sealed using aluminum foil seals and incubated overnight at 37° C. in a humidified chamber. ATP levels were read out using Cell-Titer-Glo (Promega).

The next experiment concerns the target PKR R510Q (Homo sapiens, UniProt P30613, R510Q). In words: PKR mutant assay (R510Q), AC50, LDH/NADH-coupled, absorbance at 340 nm. In kind it is biochemical. The note with it: Table 2; enzyme assay; read-out: PK R510Q AC50. The method, then:
as §1, §2, §3, §4, §5, §6, §7, §8, §9, §10

Another experiment concerns the target PKR K410E (Homo sapiens, UniProt P30613, K410E). In words: PKR mutant assay (K410E), AC50, LDH/NADH-coupled, absorbance at 340 nm. The settings on record: Table 2; enzyme assay. The experiment is classed as biochemical. The method, then:
as §1, §2, §3, §4, §5, §6, §7, §8, §9, §10

A word on the AC50: it is the concentration at which the activity in the assay is half-maximal.

Where only a bound is given, the exact number is not on record here.

Sequence of PKR K410E (P30613 whole entry K410E): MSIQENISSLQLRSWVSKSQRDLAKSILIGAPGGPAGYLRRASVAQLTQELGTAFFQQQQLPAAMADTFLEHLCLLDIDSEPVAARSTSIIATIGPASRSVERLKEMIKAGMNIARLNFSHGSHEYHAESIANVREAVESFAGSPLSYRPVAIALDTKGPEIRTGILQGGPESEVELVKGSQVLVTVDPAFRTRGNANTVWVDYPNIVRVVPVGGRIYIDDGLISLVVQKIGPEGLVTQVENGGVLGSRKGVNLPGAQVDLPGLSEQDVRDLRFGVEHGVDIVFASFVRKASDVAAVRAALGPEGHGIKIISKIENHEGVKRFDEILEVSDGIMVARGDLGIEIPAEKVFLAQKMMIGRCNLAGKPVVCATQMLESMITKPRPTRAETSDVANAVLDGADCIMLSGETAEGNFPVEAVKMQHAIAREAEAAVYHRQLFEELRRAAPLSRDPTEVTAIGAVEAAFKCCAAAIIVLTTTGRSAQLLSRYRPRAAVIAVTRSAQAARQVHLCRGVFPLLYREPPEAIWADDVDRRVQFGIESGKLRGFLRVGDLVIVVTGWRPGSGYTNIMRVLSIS
T1 sequence (P30613 whole entry): as the sequence (P30613 whole entry K410E) above, with E410K counted along it
Sequence of PKR R510Q (P30613 whole entry R510Q): as the sequence (P30613 whole entry K410E) above, with E410K, R510Q counted along it

On to `COc1cccc(Cn2ncc3c4sc(Cc5ccc(C)cc5)nc4n(C)c3c2=O)c1` [Compound 32], for which the concentration at half-maximal activity (AC50) at wild type PKR [1] is under 300 nM; on wild type PKR [2] it was at most 1000 nM; on PKR R510Q it was under 300 nM; at PKR K410E it was under 300 nM.

On to `Cc1nc2c(s1)c1cnn(Cc3ccc4cn[nH]c4c3)c(=O)c1n2C` [Compound 33], for which the AC50 at wild type PKR [1] is over 800 nM; on wild type PKR [2] it was over 1000 nM; on PKR R510Q it was 301 to 800 nM; at PKR K410E, over 800 nM.

As for `COc1cccc(Cn2ncc3c4sc(Sc5ccccc5)nc4n(C)c3c2=O)c1` [Compound 34], the AC50 at wild type PKR [1] is under 300 nM; at wild type PKR [2], at most 1000 nM; on PKR R510Q, under 300 nM; on PKR K410E, under 300 nM.

As to `COc1cccc(Cn2ncc3c4sc([S+]([O-])c5ccccc5)nc4n(C)c3c2=O)c1` (stereo not shown) [Compound 35], the AC50 is 301 to 800 nM at wild type PKR [1], over 1000 nM on wild type PKR [2], 301 to 800 nM at PKR R510Q and 301 to 800 nM at PKR K410E.

For `COc1cccc(Cn2ncc3c4sc(S(=O)(=O)c5ccccc5)nc4n(C)c3c2=O)c1` [Compound 36], the AC50 is over 800 nM on wild type PKR [1], over 1000 nM on wild type PKR [2], 301 to 800 nM at PKR R510Q and 301 to 800 nM at PKR K410E.

`C=Cc1nc2c(s1)c1cnn(Cc3cccc(OC)c3)c(=O)c1n2C` [Compound 37]: the AC50 at wild type PKR [1] was 301 to 800 nM; on wild type PKR [2] it was over 1000 nM; at PKR R510Q it was under 300 nM; at PKR K410E, over 800 nM.

In the case of `COc1cccc(Cn2ncc3c4sc(C=O)nc4n(C)c3c2=O)c1` [Compound 38], the AC50 is under 300 nM on wild type PKR [1], over 1000 nM at wild type PKR [2], under 300 nM on PKR R510Q and under 300 nM at PKR K410E.

For `CCc1nc2c(s1)c1cnn(Cc3cccc(OC)c3)c(=O)c1n2C` [Compound 39], the AC50 is under 300 nM on wild type PKR [1], over 1000 nM on wild type PKR [2], under 300 nM at PKR R510Q and under 300 nM on PKR K410E.

Consider `COc1cccc(Cn2ncc3c4sc(I)nc4n(C)c3c2=O)c1` [Compound 40], for which the half-maximal activity concentration (AC50) on wild type PKR [1] is 301 to 800 nM; at wild type PKR [2], over 1000 nM; on PKR R510Q, under 300 nM; on PKR K410E, 301 to 800 nM.

Turning to `COc1cccc(Cn2ncc3c4sc(Cc5ccc(C(F)(F)F)cc5)nc4n(C)c3c2=O)c1` [Compound 41], the AC50 at wild type PKR [1] was under 300 nM; at wild type PKR [2], at most 1000 nM; at PKR R510Q, under 300 nM; on PKR K410E, under 300 nM.

With `Cc1nc2c(s1)c1cnn(Cc3c[nH]cn3)c(=O)c1n2C` [Compound 42], the AC50 on wild type PKR [1] is over 800 nM; at wild type PKR [2] it was over 1000 nM; on PKR R510Q, over 800 nM; on PKR K410E it was over 800 nM.

In the case of `COC(=O)c1nc2c(s1)c1cnn(Cc3cccc(OC)c3)c(=O)c1n2C` [Compound 43], the AC50 on wild type PKR [1] was over 800 nM; at PKR R510Q, 301 to 800 nM; at PKR K410E, over 800 nM. At wild type PKR [2], the “Cell based ATP assay AC50” value is “No Fit”.

As for `Cc1nc2c(s1)c1cnn(Cc3ccc(CO)cc3)c(=O)c1n2C` [Compound 44], the AC50 on wild type PKR [1] is over 800 nM; at wild type PKR [2], over 1000 nM; on PKR R510Q, over 800 nM; at PKR K410E, over 800 nM.

Take `Cc1nc2c(s1)c1cnn(Cc3cccc(CO)c3)c(=O)c1n2C` [Compound 45]: the AC50 is under 300 nM at wild type PKR [1], at most 1000 nM at wild type PKR [2], under 300 nM at PKR R510Q and under 300 nM at PKR K410E.

As to `Cc1nc2c(s1)c1cnn(CCCO)c(=O)c1n2C` [Compound 46], the AC50 at wild type PKR [1] is over 800 nM; at wild type PKR [2] it was over 1000 nM; on PKR R510Q, over 800 nM; at PKR K410E it was over 800 nM.

Turning to `Cc1nc2c(s1)c1cnn(Cc3cccc([N+](=O)[O-])c3)c(=O)c1n2C` [Compound 47], the AC50 at wild type PKR [1], on PKR R510Q and at PKR K410E was over 800 nM each time. Further, the “Cell based ATP assay AC50” value on wild type PKR [2] was “No Fit”.

(Values after patent publication US11957680B2, “Pyruvate kinase activators for use in treating blood disorders” (Agios Pharmaceuticals, Inc., priority 2017, dated 2024).)
